Test results reported in PubChem BioAssay AID328 (DTP/NCI, 2004).
“And” between values parts separate entries of the source, which are not always exact repeats. Equal entries are not always repeated. Toxic doses and inconclusive results are not listed.

Test system: BDF1 mice, P388 leukemia ip, median survival T/C
Test: NCI In Vivo Anticancer Drug Screen. Data for tumor model P388 Leukemia (intraperitoneal) in B6D2F1 (BDF1) mice
Conditions: endpoint: median survival time, higher = longer survival
In short: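 Mice carrying the transplantable tumour receive compound or vehicle. Survival is followed in each arm, and the treated measure is divided by the vehicle measure.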

[1] = dose: 100.0 mg/kg/injection, schedule: Q04DX003 (ip), vehicle: saline with Tween-80
[2] = dose: 200.0 mg/kg/injection, schedule: Q04DX003 (ip), vehicle: saline with Tween-80

SMILES: COc1ccc2c(Cc3ccccc3)cncc2c1O
- T/C (dose: 6.25 mg/kg/injection, schedule: Q01DX009 (ip), vehicle: Klucel (hydroxypropylcellulose) (HPC)): 99 % of control
- T/C (dose: 12.5 mg/kg/injection, schedule: Q01DX009 (ip), vehicle: Klucel (hydroxypropylcellulose) (HPC)): 100 % of control
- T/C (dose: 25.0 mg/kg/injection, schedule: Q01DX009 (ip), vehicle: Klucel (hydroxypropylcellulose) (HPC)): 105 % of control
- T/C (dose: 50.0 mg/kg/injection, schedule: Q01DX009 (ip), vehicle: Klucel (hydroxypropylcellulose) (HPC)): 108 % of control
- T/C (dose: 100.0 mg/kg/injection, schedule: Q01DX009 (ip), vehicle: Klucel (hydroxypropylcellulose) (HPC)): 117 % of control

SMILES: CC(=O)CC(C)=O.CC(=O)CC(C)=O.CC(C)c1ncc[nH]1.O=N[O-].[Co]
- T/C (dose: 100.0 mg/kg/injection, schedule: Q04DX002 (ip), vehicle: saline with Tween-80): 105 % of control
- T/C (dose: 200.0 mg/kg/injection, schedule: Q04DX002 (ip), vehicle: saline with Tween-80): 107 % of control

SMILES: C=C/C=C/CCC(=O)C=[N+]=[N-]
- T/C (dose: 50.0 mg/kg/injection, schedule: Q01DX005 (ip), vehicle: saline with Tween-80): 91 % of control
- T/C (dose: 100.0 mg/kg/injection, schedule: Q01DX005 (ip), vehicle: saline with Tween-80): 97 % of control
- T/C (dose: 200.0 mg/kg/injection, schedule: Q01DX005 (ip), vehicle: saline with Tween-80): 101 % of control

SMILES: C[n+]1ccc(Nc2ccc(NC(=O)c3ccc([N+](=O)[O-])cc3)cc2)cc1
- T/C (dose: 6.25 mg/kg/injection, schedule: Q01DX009 (ip), vehicle: water): 108 % of control
- T/C (dose: 12.5 mg/kg/injection, schedule: Q01DX009 (ip), vehicle: water): 96 % of control
- T/C (dose: 12.5 mg/kg/injection, schedule: Q04DX003 (ip), vehicle: water): 100 % of control
- T/C (dose: 25.0 mg/kg/injection, schedule: Q01DX009 (ip), vehicle: water): 90 % of control
- T/C (dose: 25.0 mg/kg/injection, schedule: Q04DX003 (ip), vehicle: water): 98 % of control and 100 % of control (2×)
- T/C (dose: 50.0 mg/kg/injection, schedule: Q01DX009 (ip), vehicle: water): 97 % of control
- T/C (dose: 100.0 mg/kg/injection, schedule: Q01DX009 (ip), vehicle: water): 107 % of control
- T/C (dose: 150.0 mg/kg/injection, schedule: Q04DX003 (ip), vehicle: water): 91 % of control

SMILES: C1=CC2C3CC(OCCOC4CC5CC4C4CC=CC54)C(C3)C2C1 (configuration not stated)
- T/C [1]: 115 % of control
- T/C [2]: 115 % of control
- T/C (dose: 400.0 mg/kg/injection, schedule: Q04DX003 (ip), vehicle: saline with Tween-80): 120 % of control

SMILES: CS(=O)(=O)OCCN(CCOS(C)(=O)=O)c1ccc(/C=N/Nc2ncnc3nc[nH]c23)cc1
- T/C (dose: 3.13 mg/kg/injection, schedule: Q04DX003 (ip), vehicle: saline with Tween-80): 120 % of control
- T/C (dose: 66.0 mg/kg/injection, schedule: Q04DX003 (ip), vehicle: saline with Tween-80): 156 % of control
- T/C [1]: 168 % of control and 182 % of control
- T/C (dose: 150.0 mg/kg/injection, schedule: Q04DX003 (ip), vehicle: saline with Tween-80): 165 % of control
- T/C [2]: 159 % of control

SMILES: O=C1NC(=O)C2(CCCc3ccc(N(CCCl)CCCl)cc32)N1 (configuration not stated)
- T/C (dose: 6.25 mg/kg/injection, schedule: Q04DX003 (ip), vehicle: saline with Tween-80): 150 % of control
- T/C (dose: 12.5 mg/kg/injection, schedule: Q04DX003 (ip), vehicle: saline with Tween-80): 170 % of control
- T/C [1]: 227 % of control
- T/C (dose: 132.0 mg/kg/injection, schedule: Q04DX003 (ip), vehicle: saline with Tween-80): 195 % of control
- T/C [2]: 229 % of control and 240 % of control
- T/C (dose: 300.0 mg/kg/injection, schedule: Q04DX003 (ip), vehicle: saline with Tween-80): 191 % of control

SMILES: Cc1cc(O)c2c(c1)OC1(C)CCC3C(C)(C)CCCC34COC2C14 (configuration not stated)
- T/C (dose: 50.0 mg/kg/injection, schedule: Q01DX009 (ip), vehicle: other): 109 % of control
- T/C (dose: 100.0 mg/kg/injection, schedule: Q01DX009 (ip), vehicle: other): 114 % of control
- T/C (dose: 200.0 mg/kg/injection, schedule: Q01DX009 (ip), vehicle: other): 92 % of control and 110 % of control
- T/C (dose: 400.0 mg/kg/injection, schedule: Q01DX009 (ip), vehicle: other): 101 % of control

SMILES: COc1ccc(NC(=O)CC(C)=O)cc1
- T/C (dose: 6.25 mg/kg/injection, schedule: Q01DX009 (ip), vehicle: saline): 98 % of control
- T/C (dose: 12.5 mg/kg/injection, schedule: Q01DX009 (ip), vehicle: saline): 91 % of control
- T/C (dose: 25.0 mg/kg/injection, schedule: Q04DX003 (ip), vehicle: saline): 111 % of control
- T/C (dose: 50.0 mg/kg/injection, schedule: Q01DX009 (ip), vehicle: saline): 108 % of control
- T/C (dose: 50.0 mg/kg/injection, schedule: Q04DX003 (ip), vehicle: saline): 102 % of control
- T/C (dose: 100.0 mg/kg/injection, schedule: Q01DX009 (ip), vehicle: saline): 110 % of control
- T/C (dose: 100.0 mg/kg/injection, schedule: Q04DX003 (ip), vehicle: saline): 98 % of control
- T/C (dose: 200.0 mg/kg/injection, schedule: Q01DX009 (ip), vehicle: saline): 106 % of control
- T/C (dose: 200.0 mg/kg/injection, schedule: Q04DX003 (ip), vehicle: saline): 116 % of control
- T/C (dose: 400.0 mg/kg/injection, schedule: Q01DX009 (ip), vehicle: saline): 98 % of control
- T/C (dose: 400.0 mg/kg/injection, schedule: Q04DX003 (ip), vehicle: saline): 93 % of control
